Reference: paper PMC6225122 (2018)
Values after ≈ are worked out from the molar mass of the structure shown.

Columns and labels:
[1] = tested on: aptamer 132 (DNA, aptamer) ACGCATAGGGACCATGCGCAGTGAACTTGGTTCTTTGTGCTCATGTGTGCCTATGCGT; experiment: AuNP colorimetric titration (A520); conditions: 0.9 M NaCl (10 µL) added after binding; aptamer 0-1600 nM titrated against 1 μg/mL CBL, water, 30 min, room temperature
[2] = tested on: aptamer 64 (DNA, aptamer) ACGCATAGGTACACCACATCGGATCGTAATGCGTATGTGACTCAGTGTGCCTATGCGT; experiment: circular dichroism; conditions: binding buffer: 8 g/L NaCl, 0.2 g/L KCl, 0.1 g/L MgCl2·6H2O, 0.1 g/L CaCl2; 1 μM aptamer, 10 μM CBL, room temperature, 30 min
[3] = tested on: aptamer 47 (DNA, aptamer) ACGCATAGGTCATGCCAAGCTGTACACCGTCCTGGCCTGGTTGGGATGTCCTATGCGT; experiment: circular dichroism; conditions: binding buffer: 8 g/L NaCl, 0.2 g/L KCl, 0.1 g/L MgCl2·6H2O, 0.1 g/L CaCl2; 1 μM aptamer, 10 μM CBL, room temperature, 30 min
[4] = tested on: aptamer 78 (DNA, aptamer) ACGCATAGGGTACGCCACAGATCGACCTCTGGTTGGTCCTGTTGTGTGGCCTATGCGT; experiment: AuNP colorimetric titration (A520); conditions: 0.9 M NaCl (10 µL) added after binding; aptamer 0-1600 nM titrated against 1 μg/mL CBL, water, 30 min, room temperature
[5] = tested on: aptamer 47 (DNA, aptamer) ACGCATAGGTCATGCCAAGCTGTACACCGTCCTGGCCTGGTTGGGATGTCCTATGCGT; experiment: AuNP colorimetric titration (A520); conditions: 0.9 M NaCl (10 µL) added after binding; aptamer 0-1600 nM titrated against 1 μg/mL CBL, water, 30 min, room temperature
[6] = tested on: aptamer 154 (DNA, aptamer) ACGCATAGGGCATCACACATGTCCTTGCCATTGCTGACTTGTTTGGTGTCCTATGCGT; experiment: circular dichroism; conditions: binding buffer: 8 g/L NaCl, 0.2 g/L KCl, 0.1 g/L MgCl2·6H2O, 0.1 g/L CaCl2; 1 μM aptamer, 10 μM CBL, room temperature, 30 min
[7] = tested on: aptamer 28 (DNA, aptamer) ACGCATAGGATGCAACAACGCGAATGCCACCAATTCGTGCTTGTCGTGTCCTATGCGT; experiment: AuNP colorimetric titration (A520); conditions: 0.9 M NaCl (10 µL) added after binding; aptamer 0-1600 nM titrated against 1 μg/mL CBL, water, 30 min, room temperature
[8] = tested on: 5′-biotin aptamer 47 (DNA, aptamer) ACGCATAGGTCATGCCAAGCTGTACACCGTCCTGGCCTGGTTGGGATGTCCTATGCGT; experiment: indirect competitive enzyme-linked aptamer assay (ic-ELAA); conditions: binding buffer: 8 g/L NaCl, 0.2 g/L KCl, 0.1 g/L MgCl2·6H2O, 0.1 g/L CaCl2; competition with coated CBL-BSA; 1 μM aptamer (50 μL), 37 °C, 1 h
[9] = tested on: aptamer 132 (DNA, aptamer) ACGCATAGGGACCATGCGCAGTGAACTTGGTTCTTTGTGCTCATGTGTGCCTATGCGT; experiment: circular dichroism; conditions: binding buffer: 8 g/L NaCl, 0.2 g/L KCl, 0.1 g/L MgCl2·6H2O, 0.1 g/L CaCl2; 1 μM aptamer, 10 μM CBL, room temperature, 30 min
[10] = tested on: aptamer 78 (DNA, aptamer) ACGCATAGGGTACGCCACAGATCGACCTCTGGTTGGTCCTGTTGTGTGGCCTATGCGT; experiment: circular dichroism; conditions: binding buffer: 8 g/L NaCl, 0.2 g/L KCl, 0.1 g/L MgCl2·6H2O, 0.1 g/L CaCl2; 1 μM aptamer, 10 μM CBL, room temperature, 30 min
[11] = tested on: aptamer 154 (DNA, aptamer) ACGCATAGGGCATCACACATGTCCTTGCCATTGCTGACTTGTTTGGTGTCCTATGCGT; experiment: AuNP colorimetric titration (A520); conditions: 0.9 M NaCl (10 µL) added after binding; aptamer 0-1600 nM titrated against 1 μg/mL CBL, water, 30 min, room temperature
[12] = tested on: aptamer 28 (DNA, aptamer) ACGCATAGGATGCAACAACGCGAATGCCACCAATTCGTGCTTGTCGTGTCCTATGCGT; experiment: circular dichroism; conditions: binding buffer: 8 g/L NaCl, 0.2 g/L KCl, 0.1 g/L MgCl2·6H2O, 0.1 g/L CaCl2; 1 μM aptamer, 10 μM CBL, room temperature, 30 min
[13] = tested on: aptamer 64 (DNA, aptamer) ACGCATAGGTACACCACATCGGATCGTAATGCGTATGTGACTCAGTGTGCCTATGCGT; experiment: AuNP colorimetric titration (A520); conditions: 0.9 M NaCl (10 µL) added after binding; aptamer 0-1600 nM titrated against 1 μg/mL CBL, water, 30 min, room temperature
[14] = tested on: aptamer 154 (DNA, aptamer) ACGCATAGGGCATCACACATGTCCTTGCCATTGCTGACTTGTTTGGTGTCCTATGCGT; experiment: AuNP colorimetric specificity assay (A620/A520); conditions: 0.9 M NaCl added after binding; 1 μg/mL compound, 0.4 μM aptamer, room temperature, 30 min
[15] = tested on: aptamer 132 (DNA, aptamer) ACGCATAGGGACCATGCGCAGTGAACTTGGTTCTTTGTGCTCATGTGTGCCTATGCGT; experiment: AuNP colorimetric specificity assay (A620/A520); conditions: 0.9 M NaCl added after binding; 1 μg/mL compound, 0.4 μM aptamer, room temperature, 30 min
[16] = tested on: aptamer 28 (DNA, aptamer) ACGCATAGGATGCAACAACGCGAATGCCACCAATTCGTGCTTGTCGTGTCCTATGCGT; experiment: AuNP colorimetric specificity assay (A620/A520); conditions: 0.9 M NaCl added after binding; 1 μg/mL compound, 0.4 μM aptamer, room temperature, 30 min
[17] = tested on: aptamer 78 (DNA, aptamer) ACGCATAGGGTACGCCACAGATCGACCTCTGGTTGGTCCTGTTGTGTGGCCTATGCGT; experiment: AuNP colorimetric specificity assay (A620/A520); conditions: 0.9 M NaCl added after binding; 1 μg/mL compound, 0.4 μM aptamer, room temperature, 30 min
[18] = tested on: aptamer 64 (DNA, aptamer) ACGCATAGGTACACCACATCGGATCGTAATGCGTATGTGACTCAGTGTGCCTATGCGT; experiment: AuNP colorimetric specificity assay (A620/A520); conditions: 0.9 M NaCl added after binding; 1 μg/mL compound, 0.4 μM aptamer, room temperature, 30 min
[19] = tested on: aptamer 47 (DNA, aptamer) ACGCATAGGTCATGCCAAGCTGTACACCGTCCTGGCCTGGTTGGGATGTCCTATGCGT; experiment: AuNP colorimetric specificity assay (A620/A520); conditions: 0.9 M NaCl added after binding; 1 μg/mL compound, 0.4 μM aptamer, room temperature, 30 min

Kd [1] [nM]	binding [2]	binding [3]	Kd [4] [nM]	Kd [5] [nM]	binding [6]	Kd [7] [nM]	IC50 [8] [ng/mL]	binding [9]	binding [10]	Kd [11] [nM]	binding [12]	Kd [13] [nM]	binding [14]	binding [15]	binding [16]	binding [17]	binding [18]	binding [19]	Compound
221.6 ± 41.87	yes	yes	201.1 ± 42.42	42.17 ± 8.98	yes	321 ± 104.5	5.44 ± 0.01 (≈ 0.0196 µM)	yes	yes	268.8 ± 40.43	yes	123.3 ± 14.28	–	–	–	–	–	–	CC(C)(C)NCC(O)c1cc(Cl)c(N)c(Cl)c1 (stereo not shown)
–	–	–	–	–	–	–	–	–	–	–	–	–	no	no	no	no	no	no	CC(C)(C)NCC(O)c1cc(O)cc(O)c1 (stereo not shown)
–	–	–	–	–	–	–	–	–	–	–	–	–	no	no	no	no	no	no	CC(C)(C)NCC(O)c1ccc(O)c(CO)c1 (stereo not shown)
–	–	–	–	–	–	–	–	–	–	–	–	–	no	no	no	no	no	no	CC(CCc1ccc(O)cc1)NCC(O)c1ccc(O)cc1 (stereo not shown)
